Measurements reported in paper PMC12143354, “Determining sex differences in aortic valve myofibroblast responses to drug combinations identified using a digital medicine platform” (Science Advances, 2025).
Read-outs that look alike come from different tables or passages of the source.

Columns and labels:
male VICs [1] = assay: percent αSMA GMI reduction, male VICs on soft hydrogels; type: cell-based, pig; settings: n = 3 gels
From the text: (§1) Last, we tested the ability of […]-designed combinations to prevent myofibroblast activation in VICs cultured on other substrates beyond stiff hydrogels. […] Six male-optimized combinations were effective in preventing male VIC myofibroblast activation (Fig. 7K). […] Single-drug monotherapies used in the top male and female drug combinations were confirmed to have a minimal effect on male and female VIC αSMA GMI on soft hydrogels (table S14). […] After aspirating off the spent media, VICs were resuspended in 5 ml of fresh 15% FBS media and seeded on T25 Falcon tissue culture-treated flasks (Thermo Fisher Scientific). […] VICs were collected by aspirating off spent media, washing with PBS (Sigma-Aldrich) for 1 min, then incubating with 1× trypsin (Life Technologies) for 3 min. Trypsin was neutralized with an equal volume of 15% FBS growth media and centrifuged for 5 min at 0.2g. The media solution was then aspirated, and VICs were resuspended with 1 ml of 1% FBS media. VICs were counted with an automated hemocytometer to calculate the volume of cell solution to add to each well to seed at 6400 cells per well (20,000 cells/cm^2) for TCPS and hydrogel experiments. […] For each inhibitor, the nonlinear regression tool in Prism was used to estimate the response against the agonist by fitting the top, bottom, EC50/CC50, and hillslope to each dataset.

male VICs [2] = assay: percent αSMA GMI reduction by immunofluorescent staining, male VICs on TCPS; type: cell-based, pig; settings: for sex difference in efficacy (male versus female EC20) / Percent αSMA reduction, Average: TCPS; for sex difference in efficacy (male versus female EC20): unpaired two-tailed t test, P < 0.05; for reduction in αSMA GMI, initial screen: male VICs on TCPS, dosing range 10^-7 to 10^3 μM; for Percent αSMA reduction, Average: male VICs, n = 3 wells
Description: (§2) VICs were collected by aspirating off spent media, washing with PBS (Sigma-Aldrich) for 1 min, then incubating with 1× trypsin (Life Technologies) for 3 min. Trypsin was neutralized with an equal volume of 15% FBS growth media and centrifuged for 5 min at 0.2g. The media solution was then aspirated, and VICs were resuspended with 1 ml of 1% FBS media. VICs were counted with an automated hemocytometer to calculate the volume of cell solution to add to each well to seed at 6400 cells per well (20,000 cells/cm^2) for TCPS and hydrogel experiments. […] For each inhibitor, the nonlinear regression tool in Prism was used to estimate the response against the agonist by fitting the top, bottom, EC50/CC50, and hillslope to each dataset.

male VICs [3] = system: male VICs
Description: (§3) After culture on hydrogels or TCPS, the spent drug-containing media were removed, and VICs were immersed in a 4% paraformaldehyde solution in PBS for 20 min and then permeabilized for 1 hour with 0.1% Triton X-100 (Thermo Fisher Scientific) in PBS. Cells were then blocked with 5% bovine serum albumin in PBS for 1 hour at room temperature or over the weekend at 4°C. […] Last, VICs were washed once with PBS and then stored in PBS at 4°C until imaging. Gel samples were imaged in situ using a Nikon Eclipse Ti2-E and analyzed using an automated MATLAB code to quantify the αSMA gradient mean intensities and caspase-3 intensities normalized to cell mask for each cell. A minimum of 100 cells were used per gel with multiple gels used per condition.
(§4) Percent cytotoxicity was determined by designating each cell as alive or dead using caspase-3 intensity normalized to cell mask intensity, which was thresholded using a positive and negative control for cell death [10 nM staurosporine (Cell Signaling Technologies) or 1% FBS media]. The bottom value for every curve fit was set to 0, and the top value was constrained to a maximum of 100 to indicate the maximum possible effect of the drug. […] Absolute EC and CC values for % αSMA reduction and percent cytotoxicity were quantified using the top, bottom, EC50/CC50, and hillslope values estimated from the curve fits generated in GraphPad Prism (GraphPad Software Inc).

female VICs [4] = system: female VICs
Description: as §3, §4

female VICs [5] = assay: percent αSMA GMI reduction by immunofluorescent staining, female VICs on TCPS; type: cell-based, pig; settings: for reduction in αSMA GMI, initial screen: female VICs on TCPS, dosing range 10^-7 to 10^3 μM; for Percent αSMA reduction, Average: female VICs, TCPS, n = 3 wells
Description: as §2

male VICs [6] = assay: percent αSMA GMI reduction, male VICs on stiff hydrogels; type: cell-based, pig; settings: for EC1 / EC2 / Percent αSMA reduction, Average: male VICs; for EC1 / EC2: from dose response curves; for Percent αSMA reduction, Average: n = 3-4 gels
Description: (§5) Glass-bottom 96-well plates (Cellvis) were placed in an autoclave jar with a scintillation vial containing 100 μl of mercaptopropyltrimethoxysilane (MPTS; Sigma-Aldrich). The autoclave jar was then lightly sealed and placed inside an oven at 60°C for a minimum of 6 hours. The autoclave jar was opened in a chemical fume hood, and the vapor-deposited well plate was stored for up to 2 hours until ready for use. Eight-arm 20-kDa PEG-norbornene (PEG-Nb) was formed as outlined previously ([76]). A 7% (w/v) PEG-Nb hydrogel precursor solution was formed by combining phosphate-buffered saline (PBS), 20-kDa PEG-Nb at a 0.98:1 thiol-to-ene ratio, 5-kDa PEG-dithiol (Jenkem), CRGDS cell binding motif (Bachem), and lithium phenyl-2,4,6-trimethyl-benzoylphosphinate (Thermo Fisher Scientific). An EPMotion 5073l automated liquid handling system (Eppendorf) was used to pipet 7 μl of the hydrogel precursor solution into the center of each well of the vapor-deposited 96-well glass-bottom plate. The well plate with the hydrogel precursor solution was then stamped using a custom 96-well plate stamp, inverted, and cured under ultraviolet light at 10 mW/cm^2 for 3 min to induce gelation. The stamp was carefully removed by hand, and the newly formed gels were sterilized with a solution of 5% isopropyl alcohol (Thermo Fisher Scientific) in PBS for 20 min. Gels were then washed twice with PBS and stored in VIC media composed of Media199 (Life Technologies), 1% fetal bovine serum (FBS, Life Technologies), amphotericin B (1 μg/ml; Thermo Fisher Scientific), penicillin (50 U/ml; Sigma-Aldrich), and streptomycin (50 μg/ml; Sigma-Aldrich). Last, the hydrogels were placed in an incubator at 37°C with 5% carbon dioxide for up to 24 hours until experimental use.
(§6) Media changes were performed every 24 to 48 hours until cells reached ~80% confluency. […] The media solution was then aspirated, and VICs were resuspended with 1 ml of 1% FBS media. VICs were counted with an automated hemocytometer to calculate the volume of cell solution to add to each well to seed at 6400 cells per well (20,000 cells/cm^2) for TCPS and hydrogel experiments. For all experiments, VICs were seeded with 1% FBS media containing the specified drug doses and incubated at 37°C with 5% carbon dioxide with media changes every 48 to 72 hours if needed.
(§7) Drug stock solutions were discarded after two thaw cycles or after 10 months of storage. For all experiments, drug dilutions were calculated and added to VIC media to ensure that total DMSO levels remained below 1% for cytotoxicity and αSMA reduction curve fitting experiments and below 0.3% for drug combination experiments.
as §3
(§8) Curve fitting for VIC percent αSMA reduction and cytotoxicity was performed using GraphPad Prism 10 (GraphPad Software Inc). For each inhibitor, the nonlinear regression tool in Prism was used to estimate the response against the agonist by fitting the top, bottom, EC50/CC50, and hillslope to each dataset. After 2 days of culture, the percent αSMA reduction was calculated using the average αSMA gradient mean intensities of the control relative to the drug condition using Eq. 1 %αSMA reduction=100×(Control−Drug Condition/Control) (1)

female VICs [7] = assay: percent αSMA GMI reduction, female VICs on stiff hydrogels; type: cell-based, pig; settings: for EC1 / EC2: from dose response curves; for Percent αSMA reduction, Average: n = 3-4 gels
Description: as §5, §6, §7, §3, §8

female VICs [8] = assay: percent αSMA GMI reduction, female VICs on soft hydrogels; type: cell-based, pig; settings: n = 3 gels
From the text: as §1

[9] = male VICs, stiff hydrogels, from dose response curves
[10] = female VICs, stiff hydrogels, from dose response curves

Row | SMILES | reduction in αSMA GMI, initial screen (male VICs [2]) [%] | reduction in αSMA GMI, initial screen (female VICs [5]) [%] | Percent αSMA reduction, Average (female VICs [5]; single drug at L2 dose) [%] | EC1 (male VICs [6]) [µM] | EC2 (male VICs [6]) [µM] | Percent αSMA reduction, Average (male VICs [6]; single drug at level 1 dose) [%] | Percent αSMA reduction, Average (male VICs [6]; single drug at level 2 dose) [%] | EC1 (female VICs [7]) [µM] | EC2 (female VICs [7]) [µM] | Percent αSMA reduction, Average (female VICs [7]; single drug at level 1 dose) [%] | Percent αSMA reduction, Average (female VICs [7]; single drug at level 2 dose) [%] | Percent αSMA reduction, Average (female VICs [8]; single drug at L2 dose) [%] | Percent αSMA reduction, Average (male VICs [1]; single drug at L2 dose) [%] | Percent αSMA reduction, Average (male VICs [2]; single drug at L2 dose) [%] | CC1 (male VICs [3]; male, pig) [µM] | CC2 (male VICs [3]; male, pig) [µM] | CC25 (percent cytotoxicity) (male VICs [3]; male, pig) | CC1 (female VICs [4]; female, pig) [µM] | CC2 (female VICs [4]; female, pig) [µM] | CC25 (percent cytotoxicity) (female VICs [4]; female, pig) [µM] | further results
1 | C[C@@H](N)[C@H]1CC[C@H](C(=O)Nc2ccncc2)CC1 [Combination Y-27632] | > 25 | > 25 | -2.07 | 0.558 | 1.34 | 0.24 | 2.37 | 1.31 | 2.81 | 28.93 | 22.12 | 8.24 |  |  |  |  |  |  |  |  | Percent αSMA reduction, Average (male VICs [1]; single drug at L1 dose): -2.58%; sex difference in efficacy (male versus female EC20) (male VICs [2]): significantly more effective in male VICs relative to female VICs; Percent αSMA reduction, Average (male VICs [2]; single drug at L1 dose): 6.48%; CC1 (male VICs [3]): 10.8 µM; CC2 (male VICs [3]): 19.9 µM; CC25 (percent cytotoxicity) (male VICs [3]): 224 µM; CC1 (female VICs [4]): 27.5 µM; CC2 (female VICs [4]): 37.9 µM; CC25 (percent cytotoxicity) (female VICs [4]): 135 µM; Percent αSMA reduction, Average (female VICs [5]; single drug at L1 dose): 0.37%; Percent αSMA reduction, Average (female VICs [8]; single drug at L1 dose): 3.22%
2 | Fc1ccc(Cl)cc1-c1nc(Nc2ccncc2)c2nccnc2n1 [SD-208] | > 25 | > 25 | 3.05 | 0.0582 | 0.188 | 14.60 | 0.63 | 0.0061 | 0.0275 | 4.19 | 8.81 | 9.37 | 5.58 | 7.80 |  |  |  |  |  |  | CC25 (percent cytotoxicity) (male VICs [3]; male VICs on stiff gels, n = 3 gels): 58.9 µM; CC1 (male VICs [3]; [9]): 26.6 µM; CC2 (male VICs [3]; [9]): 31.1 µM; CC25 (percent cytotoxicity) (female VICs [4]; female VICs on stiff gels, n = 3 gels): 70.1 µM; CC1 (female VICs [4]; [10]): 34.8 µM; CC2 (female VICs [4]; [10]): 40.1 µM
3 | C[S+]([O-])c1ccc(-c2nc(-c3ccncc3)c(-c3ccc(F)cc3)[nH]2)cc1 (centres unmarked) [SB203580] | > 25 | > 25 |  | 24.8 | 40.8 | 5.45 | 3.67 | 7.56 | 14.5 | 2.35 | -6.55 |  |  |  | 0.413 | 2.18 | 1,613 uM | 29.8 | 48.9 | 874 | 
4 | O=c1cc(N2CCOCC2)oc2c(-c3ccccc3)cccc12 [LY294002] | > 25 | > 25 | -8.32 | 12.8 | 17.6 | 6.86 | 5.50 | 8.63 | 13.4 | 9.50 | 2.75 | 11.35 | 13.23 | -4.91 | 21.5 | 25.2 | 46.9 µM | 17.7 | 21.3 | 45.2 | 
5 | CCCCc1nc(Cl)c(CO)n1Cc1ccc(-c2ccccc2-c2nn[nH]n2)cc1 [Losartan] | > 25 | > 25 | 1.39 | 18.7 | 32.9 | 5.58 | 0.99 | 154 | 219 | 7.00 | 2.37 | 2.73 | 0.81 | -1.33 | 378 | 470 | 1,123 uM | 11.1 | 27 | 927 | sex difference in efficacy (male versus female EC20) (male VICs [2]): significantly more effective in male VICs relative to female VICs; sex difference in efficacy (male versus female EC20) (male VICs [6]; unpaired two-tailed t test, P < 0.05): reducing αSMA GMI more in male VICs relative to female VICs
